In PubChem BioAssay (NCI):
“And” between values parts separate entries of the source, which are not always exact repeats. Equal values may be shown once.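 Dose response: 5 concentrations. Exposure: 48 h. Format: 96-well plates. Endpoint: linear interpolation; highest concentration if not reached. At the GI50, growth is halved. Definition used: TGI = concentration required for complete inhibition of growth.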

Experiments:
Experiment in all cases: DTP human tumour cell line panel, 48 h
BT-549 breast = test system: BT-549 breast
HCC-2998 colon = test system: HCC-2998 colon
HCT-116 colon = test system: HCT-116 colon
HT29 colon = test system: HT29 colon
MDA-MB-231 breast = test system: MDA-MB-231 breast
MDA-MB-435 = test system: MDA-MB-435
NCI-H522 lung = test system: NCI-H522 lung
OVCAR-5 ovarian = test system: OVCAR-5 ovarian
PC-3 prostate = test system: PC-3 prostate
RPMI-8226 leukemia = test system: RPMI-8226 leukemia

Row | Compound | GI50 (BT-549 breast) [µM] | TGI (BT-549 breast) [µM] | GI50 (HCC-2998 colon) | TGI (HCC-2998 colon) | GI50 (HCT-116 colon) [µM] | TGI (HCT-116 colon) | GI50 (HT29 colon) [µM] | TGI (HT29 colon) [µM] | GI50 (MDA-MB-231 breast) [µM] | TGI (MDA-MB-231 breast) | GI50 (MDA-MB-435) | TGI (MDA-MB-435) [µM] | GI50 (NCI-H522 lung) [µM] | TGI (NCI-H522 lung) | GI50 (OVCAR-5 ovarian) [µM] | TGI (OVCAR-5 ovarian) [µM] | GI50 (PC-3 prostate) [µM] | TGI (PC-3 prostate) [µM] | GI50 (RPMI-8226 leukemia) [µM] | TGI (RPMI-8226 leukemia)
1 | COc1cc2nc(SCc3cc(OC)c(OC)c(OC)c3)n(Cc3ccccc3)c(=O)c2cc1OC | 3.32 | 20.7 | 3.71 µM | > 100 µM | 2.42 | > 100 µM | 2.76 | > 100 | 4.45 | > 66 µM | 0.375 µM | 2.04 | 0.744 | 5.83 µM | 16.3 | > 100 | 3.27 | > 100 | 2.84 | > 100 µM
2 | COc1cc2c(c(OC)c1OC)-c1ncc3c(OC)c(OC)c(OC)cc3c1C2 | 25.4 | 55.2 | 16.1 µM | 30.7 µM | 27.8 | > 100 µM | – | – | 26.2 | 86.8 µM | 23 µM | 73.5 | 19.3 | 48.3 µM | 17.4 | 77.9 | 33.7 | > 100 | 19 | 54.9 µM
3 | CCCCCCCCCCCCCCCCCC1=NC(C)(C)CN1CC(C)O (stereo not given) | 19.7 | 40.9 | 6.01 µM | 18.9 µM | 2.43 | 5.86 µM | 3.02 | 7.42 | 2.02 | 4.37 µM | 2.08 µM | 4.5 | 4.5 | 23.8 µM | 15.5 | 31.7 | 3.31 | 10.8 | 14.4 | 36 µM
4 | CCOC(=O)Nc1nc2ccc(OC)cc2s1 | > 100 | > 100 | > 100 µM | > 100 µM | > 100 | > 100 µM | > 100 | > 100 | > 100 | > 100 µM | 4.18 µM | > 100 | > 100 | > 100 µM | > 100 | > 100 | > 100 | > 100 | > 100 | > 100 µM
5 | O=c1c2cc(F)ccc2sc2c(N3CCNCC3)nc3ccc(F)cc3c12 | 10.1 | 24.1 | 1.74 µM | 3.4 µM | 1.63 | 3.21 µM | 1.65 | 3.22 | 1.42 | 2.79 µM | 1.74 µM | 3.2 | 1.7 | 3.39 µM | 1.66 | 3.07 | 1.7 | 3.3 | 2.16 | 4.89 µM
6 | Cc1[nH]nc(C(F)(F)F)c1N=NN(C)C | – | 24.9 | – | 31.5 µM | – | 4.99 µM | – | 34.1 | – | 25.4 µM | – | 32.7 | – | 2.98 µM | – | – | – | 25.1 | – | 5.15 µM
7 | CS(=O)(=O)CCNCc1cc(-c2cc3c(Nc4ccc(OCc5cccc(F)c5)c(Cl)c4)ncnc3s2)cs1 | 17.2 | > 25 | 6.59 µM | 21.5 µM | 12 | > 25 µM | 5.41 | 13.1 | 6.15 | 19.9 µM | 11 µM | > 25 | 9.64 | > 25 µM | 13.5 | > 25 | 13 | > 25 | 6.95 | 23.2 µM
8 | COc1cccc(/C(C#N)=C/c2nc3c(N4CCOCC4)nc(Cl)nc3n2C)c1 | 0.631 | 2.04 | 1.69 µM | 3.24 µM | 0.171 | 0.433 µM | 0.351 | 1.36 | 1.38 | 2.82 µM | 1.25 µM | 2.61 | 0.567 | 2.2 µM | 1.55 | 3.57 | 1.06 | 2.98 | 0.376 | 1.87 µM
9 | COc1cc(OC)c(C(=O)/C=C/c2cc3c(cc2OCc2ccccc2)OC(C)(C)CC3)cc1CC=C(C)C | 4.2 | 12.3 | 8.91 µM | > 25 µM | 2.98 | 6.41 µM | 3.57 | 8.92 | 10.1 | > 25 µM | 4.54 µM | 18.2 | 7.85 | > 25 µM | 13.4 | > 25 | 5.75 | > 25 | 2.86 | 11.6 µM
10 | CC1CCC2(NC1)OC1CC3C4CC=C5CC(O)CCC5(C)C4CCC3(C)C1C2C (stereo not given) | – | > 100 | 31.7 µM and 15.2 µM | > 100 µM and 56 µM | – | 53.5 µM and > 68.1 µM | – | > 100 | – | 51.7 µM and 37 µM | 48.7 µM and 16.6 µM | > 100 | – | > 100 µM and 62.9 µM | – | > 100 | – | > 100 | – | 93.3 µM and 70.2 µM
11 | [C](#Cc1ccccc1)[Hg][C]#Cc1ccccc1 | 22.1 | 43.2 | 47.7 µM | 82.6 µM | 72.5 | > 100 µM | 14.1 | 40.9 | 20.8 | 44.8 µM | 43.2 µM | > 100 | 19.4 | 46.1 µM | 63.1 | > 100 | 30.6 | 87.5 | 13.1 | > 100 µM
12 | Cc1nc(-c2ccccc2)n2nc(NCCCN3CCOCC3)ncc12 | > 25 | > 25 | > 25 µM | > 25 µM | 19.4 | > 25 µM | > 25 | > 25 | > 25 | > 25 µM | > 25 µM | > 25 | > 25 | > 25 µM | > 25 | > 25 | > 25 | > 25 | > 25 | > 25 µM
13 | COC(=O)c1cc2c3ccccc3n3c(=O)c4cc5ccc(N(S(=O)(=O)c6ccc(C)cc6)S(=O)(=O)c6ccc(C)cc6)cc5nc4c(n1)c23 | 35.7 | > 100 | > 100 µM | > 100 µM | – | – | > 100 | > 100 | 21.4 | > 100 µM | > 100 µM | > 100 | 83.7 | > 100 µM | > 100 | > 100 | > 100 | > 100 | 43.7 | > 100 µM
14 | OCc1ccc(N2CCc3cccc(F)c3C2)cc1Cl | 16.9 | 36.7 | 1.96 µM | 11 µM | < 0.0104 | 14.6 µM | 0.0334 | 35.5 | 13.4 | 43.5 µM | 19.5 µM | 51.8 | 13.4 | 36.3 µM | 0.0253 | 0.151 | 16 | 47.9 | – | 20.5 µM
15 | CCNc1cc(-c2cccc(OC(F)(F)F)c2)nc2ccc(N3CCCC3)cc12 | 2.03 | 4.07 | 2.27 µM | 6.06 µM | 1.52 | 3.43 µM | 2.18 | 10.3 | 1.58 | 3.16 µM | 1.56 µM | 3.05 | 1.45 | 3.65 µM | 2.36 | 7.63 | 1.48 | 4.31 | 1.34 | 3.92 µM
16 | COc1ccc(-c2ccncc2)cc1C(N)=O | > 25 | > 25 | > 25 µM | > 25 µM | > 25 | > 25 µM | > 25 | > 25 | > 25 | > 25 µM | > 25 µM | > 25 | > 25 | > 25 µM | > 25 | > 25 | > 25 | > 25 | > 25 | > 25 µM
17 | O=C(/C=C/C12c3ccccc3C(c3ccccc31)C1C(=O)NC(=O)C12)c1ccc(Cl)cc1Cl (stereo not given) | 1.66 | 3.27 | 1.81 µM | 3.41 µM | 1.61 | 3.05 µM | 2.02 | 4.41 | 2.31 | 5.82 µM | 1.98 µM | 4.06 | 1.69 | 3.41 µM | 1.72 | 3.3 | 1.55 | 3.08 | 1.68 | 4.41 µM
18 | C=CCn1c(C)nc2ccc(Nc3nc(Nc4ccc(F)cc4)nc4ccccc34)cc21 | 3.35 | 18.1 | 8.87 µM | 23.5 µM | 2.41 | 7.67 µM | 3 | 13.3 | 2.37 | 8.24 µM | 4 µM | 20.4 | 3.12 | 13.4 µM | 11.6 | 26.6 | 3.14 | 14.7 | 1.85 | 4.57 µM
19 | S=c1snc2n1CCN2 | > 100 | > 100 | 19.3 µM | 74.7 µM | 22.6 | > 100 µM | 65.9 | > 100 | 91.1 | > 100 µM | > 100 µM | > 100 | 40.9 | > 100 µM | > 100 | > 100 | 65.4 | > 100 | 42.2 | > 100 µM
20 | O=C(/C=C/c1ccccc1)C(Br)C(Br)c1ccccc1 (stereo not given) | 1.86 | 3.39 | 1.9 µM | 3.63 µM | 0.2 | 0.43 µM | 1.04 | 2.48 | 1.73 | 3.51 µM | 1.49 µM | 3.08 | 1.04 | 2.31 µM | 1.67 | 3.39 | 2.69 | 8.69 | 0.317 | 0.909 µM
21 | CC[C@H](Nc1ncnc2nc[nH]c12)c1nc2cccc(F)c2c(=O)n1-c1ccccc1 | 4.64 | > 100 | 58.6 µM | > 100 µM | 39.4 | > 100 µM | 30 | > 100 | 29.8 | > 100 µM | 19.1 µM | > 74.6 | 28.8 | > 100 µM | 45 | > 100 | 3.32 | > 100 | 37.6 | > 100 µM
22 | CC(C)CCC[C@@H](C)[C@H]1CC[C@H]2[C@@H]3CC[C@H]4C[C@@H](CCC=C(c5cc(Cl)c(O)c(C(=O)O)c5)c5cc(Cl)c(O)c(C(=O)O)c5)CC[C@]4(C)[C@H]3CC[C@]12C | – | > 100 | – | > 100 µM | – | > 100 µM | – | > 100 | – | > 100 µM | – | > 100 | – | > 100 µM | – | > 100 | – | > 100 | – | > 100 µM
23 | Cc1ncc(C(=O)Nc2ccc(CN3CCN(C)CC3)c(C(F)(F)F)c2)cc1C#Cc1cnc2cccnn12 | 1.23 | 3.72 | 0.446 µM | 4.28 µM | 0.178 | 0.743 µM | 0.199 | 14.5 | 0.205 | 4.15 µM | 0.243 µM | 1.48 | 0.58 | 2.4 µM | 0.335 | 5.84 | 0.651 | 4.79 | 0.145 | 1.29 µM
24 | CCC(O)c1ccc(Br)cc1NC(=O)c1cccc(Cl)c1 (stereo not given) | 23.7 | 74.3 | 20.5 µM | 45.4 µM | 14.2 | 46.6 µM | 17.9 | 37.2 | 18.8 | > 100 µM | 16.9 µM | 35 | 19.8 | 81 µM | 32.3 | > 100 | 12.5 | 53.4 | 11.4 | 48.3 µM
25 | Cn1c(-c2c(N)n(Nc3cccc(Cl)c3)c3nc(C#N)c(C#N)nc23)nc2ccccc21 | 0.0816 | 1.97 | 6.95 µM | 16.9 µM | 8.54 | > 50 µM | – | – | 6.47 | 17.7 µM | 3.28 µM | 14 | 1.06 | 8.19 µM | – | – | 10.5 | 33.9 | 3.53 | > 50 µM
26 | COc1ccc2cc(/C=C/C(=O)c3ccc(Cl)cc3Cl)ccc2c1 | 33 | 96.7 | 20.6 µM | 48.8 µM | 16.9 | 46 µM | – | – | 27.3 | > 100 µM | 25.4 µM | 75.3 | 21.6 | > 100 µM | 45.7 | > 100 | 44.7 | > 100 | 16.2 | 47.2 µM
